Source: patent US4128666A, “4 AND 5-Halo substituted 2-indanamine compounds” (SmithKline Corporation, priority 1977, dated 1978)

Experiments:
[1] = target: phenylethanolamine N-methyltransferase; assay: inhibition of phenylethanolamine N-methyltransferase in vitro; type: biochemical; conditions: for Ki: enzyme inhibition dissociation constant, calculated according to Chou
Procedure: Chem. Path. Pharm. 17:201-213, 1977, at various compound concentrations. From the data received, the enzyme inhibition dissociation constants (Ki values) were calculated according to mathematical procedures described by Chou, Mol. Pharm. 10:235-247, 1974.
The Ki value of a preferred compound of this invention, 4,5-dichloro-2-indanamine, was compared with other closely related compounds.

[2] = tested on: adrenal epinephrine/norepinephrine ratio; assay: in vivo adrenal epinephrine/norepinephrine ratio in mice (PNMT inhibition); conditions: for E/NE Ratio: male mice, 50 mg/kg p.o. daily dose, seven days, n = 5
Procedure: Male mice were dosed orally with either drug or vehicle control on a twice-a-day basis for seven consecutive days.
On the morning of the next day they were again dosed with two hours later sacrificed by decapitation. The adrenal glands were then removed and analyzed fluorometrically for both epinephrine and norepinephrine content.

[3] = Experiment 1, control 2.6 ± .1, ^b (SK & F 82566) significantly different from control, p <.001

| SMILES | Ki [1] | E/NE Ratio ([2]; Experiment 2, control 2.0 ± .05) | E/NE Ratio [2, 3] | potency of inhibition (in words) ([1]; compared with the other compounds of Table I) | lowering of adrenal epinephrine/norepinephrine ratio (in words) ([2]; only this compound, under the conditions of this study) |
| --- | --- | --- | --- | --- | --- |
| NC1CCc2c1ccc(Cl)c2Cl (centres unmarked) [SK & F 82520] | 0.4 µM | 1.8 | – | – | – |
| NC1CCc2ccc(Cl)c(Cl)c21 (centres unmarked) [SK & F 82570] | > 1 µM | – | – | – | – |
| NC1Cc2cc(Cl)c(Cl)cc2C1 [SK & F 50070] | 1 µM | – | 2.2 | – | – |
| NC1Cc2ccccc2C1 [SK & F 8851] | 10 µM | – | 2.4 | – | – |
| NC1Cc2ccc(Cl)c(Cl)c2C1 (centres unmarked) [SK & F 82566, 4,5-dichloro-2-indanamine] | 0.02 µM | – | 1.1 | much more potent inhibitor than the other compounds | significantly lowered the adrenal epinephrine/norepinephrine ratio |
